Laboratory results taken from patent US7897637B2, “Methods of using flavonoids to enhance memory” (The Salk Institute for Biological Studies, priority 2006, dated 2011).
“Also recorded” adds a separate entry of the source.

How the values were obtained:
ERK2 (p42) = ERK2 (p42) phosphorylation in hippocampal slices (immunoblotting, densitometry); assay type: cell-based, rat; conditions: for p42 phosphoprotein signal normalized to total protein: 1 μM
Experimental: (§1) Western blots panels A and B) of hippocampal slices treated with (A) 1 μM fisetin or (B) pretreated for 30 minutes with either 50 μM PD98059 (PD) or 10 μM U0126 (U) before the addition of 1 μM fisetin for 5 minutes, which blots were probed with the indicated antibodies.
(§2) Hippocampal slices in artificial cerebral spinal fluid (ACSF) were treated with either 1 μM fisetin for 5-20 minutes or pretreated for 30 minutes with either 50 μM PD98059 (PD) or 10 μM U0126 (J) before the addition of 1 μM fisetin for 5 minutes. Equal amounts of protein were analyzed by SDS-PAGE and immunoblotting with antibodies to phospho-ERK and phospho-CRFB along with antibodies to the unphosphorylated forms of the proteins. The average phosphoprotein signal from the blots was quantified by densitometry and normalized to total protein was plotted±S.D.

ERK = ERK activation in primary cortical neuron cultures (immunoblotting); assay type: cell-based, rat; conditions: 10 μM, 30 minutes to 6 hours
Experimental: (§3) The average phosphoprotein signal from the blots was quantified by densitometry and normalized to total protein,
(§4) Five (5) day old cortical cultures were next pretreated with 50 μM of the MEK inhibitor, PD98059, before the addition of 10 μM fisetin for 4 hours.
(§5) Primary cultures of rat cortical neurons were prepared as previously described by Li et al. (Neuron, 19:453-63, 1997, herein incorporated by reference as to the method). Analysis of ERK and CREB phosphorylation was performed using SDS-polyacrylamide gel electrophoresis and immunoblotting as previously described by Sagara et al. (J. Neurochem., 90:1144-1155, 2004) using equal amounts of protein from 5 day old cortical cultures. Blots were scanned and quantified using NIH Image. Results were analyzed using an unpaired Student's t-test.

PC12 cells = conditions: at 10 μM; Sagara et al. 2004; cited from earlier work
CREB = CREB activation in primary cortical neuron cultures (immunoblotting); assay type: cell-based, rat; conditions: 10 μM, 30 minutes to 6 hours
Experimental: as §3, §4, §5

[1] = tested on: CA1 area of rat hippocampal slices; experiment: Long-term potentiation in CA1 area of hippocampal slices; assay type: cell-based
C57BL/6 mice = experiment: MPTP-induced striatal dopamine loss; assay type: in vivo
Experimental: C57BL/6 mice from about 11 to 12 week old (20-25 g) were injected with a single dose of […] 1-methyl-4-phenyl-1,2,3,6-tetrahydropyridine (MPTP). MPTP is toxic to dopaminergic neurons in the substantia nigra, and produces many of the symptoms of Parkinson's disease. MPTP-treated mice have long been used as a model of human Parkinson's disease (see, e.g., reviews by Smeyne and Jackson-Lewis, Brain Bes. Mol. Brain Res., 134(1):57-66, 2005; Tetrud and Langston, Acta Neurol. Scand. Suppl., 126:35-40, 1989). After 8 days, the animals were euthanized and the striata dissected and assayed for dopamine content by HPLC combined with electrochemical detection, as previously described (Irwin e/al., Brain Res., 572:224-231, 1992). One group of untreated mice (n=4) and one group of MPTP-treated mice (n=4) received orally administered fisetin (25 mg/kg) beginning one day before treatment groups received MPTP and continuing for the same time period as MPTP treatment in treatment groups. Mice untreated with MPTP or fisetin (control) and mice treated with MPTP alone were also examined.

ERK1 (p44) = ERK1 (p44) phosphorylation in hippocampal slices (immunoblotting, densitometry); assay type: cell-based, rat; conditions: for p44 phosphoprotein signal normalized to total protein: 1 μM
Experimental: as §1, §2

Sprague-Drawley rats = experiment: Morris water maze (spatial learning and memory); assay type: in vivo; conditions: 25 mg/kg by gavage
Experimental: This example describes use of the Morris water maze (MWM) to examine hippocampus-dependent spatial learning and memory in rats. The standard test consists of two parts; a training phase, which measures the ability of the animals to learn where a hidden platform is located within an opaque pool of water and a probe test, which is performed 24 hours after the last training trial and measures the ability of the animals to remember the location of the platform (Vorhees & Williams, Nature Protocols 1.848-58, 2(006))
To test whether oral administration of fisetin could increase spatial learning and/or memory, young male Sprague-Drawley rats (8 weeks old) were administered fisetin by gavage (25 mg/kg) beginning one day before the training phase and continuing throughout the 8 days of training. The rats were given four trials a day for 8 days. Retention of the spatial training was assessed 24 hours after the last training trial. The probe trial consisted of a 60 second free swim in the pool without the platform. Both the training and probe trials were monitored by a video camera mounted above the pool and all data were analyzed by software provided with the video-tracking program.

Rabbits = experiment: Small blood clot embolism model of brain ischemia (P50); assay type: in vivo; conditions: 50 mg/kg intravenously, bolus 5 minutes after embolization; 24 hours post-embolism
Experimental: Rabbits were embolized with small blood clots of varying size (from about 1 mg to about 4 mg) according to the procedure described by Lapchak et al. (Exp. Neurol., 188.279-285, 2004). […] In some subjects, fisetin treatment (50 mg/kg delivered intravenously) was given as a bolus 5 minutes after embolization. Twenty four (24) hours later, a naïve observer rated each treated or control animal as either behaviorally normal or abnormal. Rabbits judged “abnormal” included those with at least one of the following symptoms: ataxia, leaning, circling, lethargy, nystagmus, loss of balance, loss of sensation and occasionally paraplegia. […] The effective stroke dose or P50 value was then calculated as the amount of microclots (in mg) that produce behavioral impairment in 50% of the animals within a specific treatment group.

[2] = hippocampal slices, 1 μM fisetin
[3] = weak tetanic stimulation 15 pulses at 100 Hz

## O=c1c(O)c(-c2ccc(O)c(O)c2)oc2cc(O)ccc12 [fisetin, 3,3′,4′,7-tetrahydroxyflavone]
ERK2 (p42); 5 min
  p42 phosphoprotein signal normalized to total protein: 1.68±0.06
ERK2 (p42); 10 min
  p42 phosphoprotein signal normalized to total protein: 1.31±0.05
ERK2 (p42); 20 min
  p42 phosphoprotein signal normalized to total protein: 1.42±0.03
ERK2 (p42); [2]
  increase in ERK2 phosphorylation: 2 fold
ERK
  ERK activation: induced ERK activation
PC12 cells
  differentiation of the cells induced: 75-80%
CREB
  CREB activation: enhanced CREB activation
[1]; 15 pulses at 100 Hz, fisetin 20 minutes prior to, during and after
  induction of LTP following weak tetanic stimulation: LTP was induced; also recorded: facilitates the induction of LTP
[1]; in the presence of APV
  effect on APV-dependent inhibition of excitatory postsynaptic potentials: no effect
[1]; no tetanus
  effect on basal synaptic transmission: no direct effect
[1]; [3]
  maximal effective dose for facilitation of LTP induction: 1 µM
  persistence of facilitated LTP: at least 60 minutes
C57BL/6 mice; MPTP and fisetin 25 mg/kg oral
  striatal dopamine concentration: at least as high as control
C57BL/6 mice; fisetin alone 25 mg/kg oral, no MPTP
  striatal dopamine concentration: highest concentrations of striatal dopamine
ERK1 (p44); 5 min
  p44 phosphoprotein signal normalized to total protein: 1.98±0.16
ERK1 (p44); 10 min
  p44 phosphoprotein signal normalized to total protein: 1.48±0.02
ERK1 (p44); 20 min
  p44 phosphoprotein signal normalized to total protein: 1.30±0.09
ERK1 (p44); [2]
  increase in ERK 1 phosphorylation: 2 fold
Sprague-Drawley rats
  effect on swim speed or thigmotaxis: no significant effect
Sprague-Drawley rats; 8 days of training
  ability of the rats to learn the location of the hidden platform: no clear effect
Sprague-Drawley rats; 24 hours after last training trial, vs vehicle
  probe test: time in the quadrant where the platform had been located (spatial memory): significantly more time; also recorded: enhances spatial memory
Rabbits
  P50 value (mg clot that produce behavioral deficits in 50% of the animals): 2.18 ± 0.42 mg
